Laboratory results as given in US10065926B2, “Use of substituted dihydrooxindolylsulfonamides, or the salts thereof, for increasing the stress tolerance of plants” (BAYER CROPSCIENCE AKTIENGESELLSCHAFT, priority 2013, dated 2018).

Molecular target: T1, phosphatase ABI1 via the co-regulator RCAR11/PYR1 (Arabidopsis thaliana, UniProt O49686+P49597)
T1 sequence (P49597 1-434): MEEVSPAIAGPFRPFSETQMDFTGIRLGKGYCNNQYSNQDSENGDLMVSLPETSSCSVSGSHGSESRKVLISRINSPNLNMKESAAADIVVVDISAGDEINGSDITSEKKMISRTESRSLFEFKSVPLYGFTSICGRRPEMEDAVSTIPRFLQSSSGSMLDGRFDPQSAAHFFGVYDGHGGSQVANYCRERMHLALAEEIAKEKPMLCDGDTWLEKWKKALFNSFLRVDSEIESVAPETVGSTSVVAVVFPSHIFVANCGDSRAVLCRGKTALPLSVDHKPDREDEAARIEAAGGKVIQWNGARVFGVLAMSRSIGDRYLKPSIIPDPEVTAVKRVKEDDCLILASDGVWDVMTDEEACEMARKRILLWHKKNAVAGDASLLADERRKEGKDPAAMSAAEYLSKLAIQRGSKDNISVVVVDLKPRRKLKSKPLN
T1 sequence (O49686 1-191): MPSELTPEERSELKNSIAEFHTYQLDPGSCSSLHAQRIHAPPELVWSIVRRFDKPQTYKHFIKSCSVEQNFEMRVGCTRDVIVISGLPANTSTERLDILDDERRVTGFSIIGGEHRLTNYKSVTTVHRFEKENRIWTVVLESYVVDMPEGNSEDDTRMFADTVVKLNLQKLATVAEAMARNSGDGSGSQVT
Assay: In vitro inhibition of phosphatase ABI1 via co-regulator RCAR11/PYR1, MUP dephosphorylation, fluorescence
Type: biochemical
Conditions: at a concentration of 5 mM of the substance in a solution of DMSO and water; 35° C., 20 minutes
From the text: Effects of the phytohormone abscisic acid (ABA) on the behavior of plants under abiotic stress and the mechanism of action of ABA are described in the literature (cf. Abrams et al., WO97/23441, Cutler, Park et al. Science, 2009, 324, 1068; Grill et al. Science, 2009, 324, 1064; Tanokura et al. Biophysics, 2011, 7, 123; Schroeder et al. Plant J. 2010, 61, 290). Therefore, it is possible with the aid of a suitable in vitro test system to derive a correlation between the action of ABA and the stress response of a plant under abiotic stress. In the event of water deficiency (drought stress), plants form the phytohormone abscisic acid (ABA). This binds, along with a co-regulator (Regulatory Component of ABA-Receptor=RCAR according to Grill et al. Science, 2009, 324, 1064 or PYR/PYL according to Cutler et al. Science, 2009, 324, 1068), to a phosphatase (e.g. ABI1, a type 2C protein phosphatase, also abbreviated to PP2C) and inhibits its activity. […] For the determination of activity, the dephosphorylation of 4-methylumbelliferyl phosphate (MUP) was measured at 460 nm. […]
Enzyme buffer mix and substrate mix were made up 5 minutes prior to the addition and warmed to a temperature of 35° C. […] Finally, a relative fluorescence measurement was made at 35° C. with a BMG Labtech “POLARstar Optima” microplate reader using a 340/10 nm excitation filter and a 460 nm emission filter. […]

## CC1=CC(=O)CC(C)(C)[C@@]1(O)/C=C/C(C)=C\C(=O)O [abscisic acid]
  ABI1 inhibition: ++++ (≥90% inhibition)
